These results are taken from the OligoGym collection.

Where “and” joins values, the source holds several entries; their conditions need not be identical. Equal entries are not always repeated. After the bases stand the sugars from the 5' end (letter, count) and the backbone: PS all phosphorothioate, else s phosphorothioate and o phosphodiester by linkage. Methylation of C is not given here. e = 2'-O-(2-methoxyethyl) (MOE); k = constrained ethyl (cEt); d = 2'-deoxy (DNA)

One series addresses APOL1. The following applies: ASO.
The target in a further series is SOD1. The following applies: ASO.

As to “GTTATATTTGATCCTC (sugars kddddkekekeddddd, PS)”, the target mRNA inhibition with APOL1 (A431, 2 µM) amounted to 60%.

In turn, “TTATGAAATTATTGGT (sugars kkkddddkekekdddd, PS)” returned a target mRNA inhibition with APOL1 (A431, 2 µM) of 86%.

In the case of “TCTCATGGTACAGGAG (sugars kddddkekekeddddd, PS)”, the target mRNA inhibition with APOL1 (A431, 2 µM) is 55%.

Regarding “CAGTTTTGTAAGTGCA (sugars kekddddeekkddddd, PS)”, the target mRNA inhibition with APOL1 (A431, 0.0156 µM) was found to be 39%; with APOL1 (A431, 0.0625 µM), 73%; with APOL1 (A431, 0.25 µM) it was 92%; in the series with APOL1 (A431, 1 µM) it was 96%; in the series with APOL1 (A431, 2 µM) it was 96%.

In the series with APOL1 (A431, 2 µM), “ACACATCATTGGGTTA (sugars kkkddddkekeddddd, PS)” displayed a target mRNA inhibition of 58%.

In the series with APOL1 (A431, 2 µM), “GTTTTGTAAGTGCAAC (sugars kdddddkekekddddd, PS)” yielded a target mRNA inhibition of 92%.

On to GCTAAGTTCCGGTCTC (sugars k4 d9 k3, PS), for which the target mRNA inhibition with APOL1 (A431, 0.0625 µM) stood at 50%; with APOL1 (A431, 0.25 µM) it was 74%; in the series with APOL1 (A431, 1 µM), 85%.

“TGTTATATTTGATCCT (sugars k3 d4 k3 e1 d5, PS)”: the target mRNA inhibition with APOL1 (A431, 2 µM) is 89%.

“ATTCTCATGGTACAGG (sugars kkddddkekekkdddd, PS)” came in with a target mRNA inhibition in the series with APOL1 (A431, 2 µM) of 34%.

As to “GCTTTAAACTCAGGTG (sugars kekddddeekkddddd, PS)”, the target mRNA inhibition with APOL1 (A431, 2 µM) worked out at 93%.

In turn, “TTGTAAGTGCAACCAA (sugars kkddddkekekddddd, PS)” displayed a target mRNA inhibition with APOL1 (A431, 2 µM) of 69%.

As to “GCATTCAGAATTTCCA (sugars kkkddddkekeddddd, PS)”, the target mRNA inhibition with APOL1 (A431, 2 µM) was 84%.

Regarding “CGTCAATATATTCTTT (sugars kkddddkdkdkddddd, PS)”, in the series with APOL1 (A431, 2 µM), the target mRNA inhibition amounted to 91%.

As to TAATTCTATTAGAGGG (sugars k4 d9 k3, PS), the target mRNA inhibition was determined as 17% with APOL1 (A431, 0.0625 µM); 45% with APOL1 (A431, 0.25 µM); 69% in the series with APOL1 (A431, 1 µM).

With “GAATTATGGAATTGCA (sugars kkddddkdkdkddddd, PS)”, the target mRNA inhibition in the series with APOL1 (A431, 2 µM) stood at 82%.

In the series with APOL1 (A431, 2 µM), “CATTCAGAATTTCCAC (sugars k2 d4 e3 k2 d5, PS)” registered a target mRNA inhibition of 78%.

Consider “TATTTCTTGATGTGGT (sugars k2 d4 e3 k2 d5, PS)”, for which the target mRNA inhibition with APOL1 (A431, 0.0156 µM) was determined as 37%; in the series with APOL1 (A431, 0.0625 µM), 78%; in the series with APOL1 (A431, 0.25 µM) it was 94%; with APOL1 (A431, 1 µM), 98%; with APOL1 (A431, 2 µM) it was 99%.

In the series with APOL1 (A431, 2 µM), “GGAATTATGGAATTGC (sugars kkddddkdkdkddddd, PS)” returned a target mRNA inhibition of 89%.

Regarding AATGAACGCAATGCTG (sugars k4 d9 k3, PS), the target mRNA inhibition in the series with APOL1 (A431, 0.0625 µM) was found to be 35%; with APOL1 (A431, 0.25 µM), 50%; with APOL1 (A431, 1 µM), 75%.

In turn, “TTATACCAGTGTCTTC (sugars kddddkekekeddddd, PS)” gave a target mRNA inhibition in the series with APOL1 (A431, 2 µM) of 82%.

For the sequence “TGTTTAATGTTTATCA (sugars kekeddddddddekek, linkages s1 o3 s8 o1 s2)”, the target mRNA inhibition with SOD1 (A431, 0.12 µM) was determined as 6%; with SOD1 (A431, 0.6 µM), 14%; in the series with SOD1 (A431, 3 µM) it was 15%; with SOD1 (A431, 15 µM), 32%; in the series with SOD1 (HepG2, 0.222 µM) it was 42%; with SOD1 (HepG2, 0.667 µM), 54%. The target mRNA inhibition with SOD1 (HepG2, 2 µM) turned out to be 69%; with SOD1 (HepG2, 6 µM) it was 86%.

With “GATACATTTCTACAGCT (sugars e3 k2 d7 k2 e3, PS)”, in the series with SOD1 (HepG2, 3 µM), the target mRNA inhibition was 40%.

On to “AGATCACAGAATCTTCAATA (sugars e5 d10 e5, PS)”, for which the target mRNA inhibition with SOD1 (HepG2, 5 µM) was 14% and 29%.

Take “CCCTTCAGCACGCACAC (sugars e2 k2 d8 k2 e3, PS)”: the target mRNA inhibition with SOD1 (HepG2, 0.1875 µM) stood at 25%; with SOD1 (HepG2, 0.75 µM) it was 22%; in the series with SOD1 (HepG2, 2 µM) it was 50%; with SOD1 (HepG2, 3 µM), 72%; in the series with SOD1 (HepG2, 4 µM), 74%; with SOD1 (HepG2, 12 µM), 79%.

“GTGCCATACAGGGTTTT (sugars e2 k2 d9 k2 e2, PS)” yielded a target mRNA inhibition with SOD1 (HepG2, 5 µM) of 28%.

As for “CTTCAGCACGCACACGGCCT (sugars e5 d10 e5, PS)”, the target mRNA inhibition worked out at 13% with SOD1 (HepG2, 0.1875 µM); 23% with SOD1 (HepG2, 0.75 µM); 48% in the series with SOD1 (HepG2, 3 µM); 57% with SOD1 (HepG2, 4 µM); 77% with SOD1 (HepG2, 12 µM).

In turn, “CTGCAGGAGACTACGACGCA (sugars e5 d10 e5, PS)” returned a target mRNA inhibition with SOD1 (HepG2, 4 µM) of 36%.

Regarding “CCTCAGACTACATCCAA (sugars e2 k2 d9 k2 e2, PS)”, the target mRNA inhibition in the series with SOD1 (HepG2, 0.1875 µM) was 11%; in the series with SOD1 (HepG2, 0.75 µM), 67%; with SOD1 (HepG2, 3 µM) it was 89%; in the series with SOD1 (HepG2, 4 µM), 87%; with SOD1 (HepG2, 12 µM) it was 94%.
